Laboratory results taken from PubChem BioAssay AID256 (DTP/NCI, 2004).
Several values for one entry are separate records, joined by “and”; a condition that tells them apart may be missing. Identical values can stand only once. Inconclusive results and toxic doses are left out. How the source made its calls: active means survival T/C of 150% or more; inactive means T/C below 125% in these data.

Test system: CD2F1 mice, L1210 leukemia ip, survival T/C
Experiment: NCI In Vivo Anticancer Drug Screen. Data for tumor model L1210 Leukemia (intraperitoneal) in CD2F1 (CDF1) mice
Conditions: higher = longer survival
Outline: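 In this screen, transplantable tumors were grown in mice given either the compound or its vehicle. Results were expressed as the treated measurement relative to the control measurement.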

[1] = endpoint: mean survival time, dose: 100.0 mg/kg/injection, schedule: Q01DX001 (ip), vehicle: saline with Tween-80
[2] = endpoint: mean survival time, dose: 200.0 mg/kg/injection, schedule: Q01DX001 (ip), vehicle: saline with Tween-80
[3] = endpoint: mean survival time, dose: 400.0 mg/kg/injection, schedule: Q01DX001 (ip), vehicle: saline with Tween-80
[4] = endpoint: mean survival time, dose: 25.0 mg/kg/injection, schedule: Q01DX001 (ip), vehicle: saline with Tween-80
[5] = endpoint: mean survival time, dose: 50.0 mg/kg/injection, schedule: Q01DX001 (ip), vehicle: saline with Tween-80
[6] = endpoint: mean survival time, dose: 50.0 mg/kg/injection, schedule: Q01DX009 (ip), vehicle: saline with Tween-80
[7] = endpoint: mean survival time, dose: 100.0 mg/kg/injection, schedule: Q01DX009 (ip), vehicle: saline with Tween-80
[8] = endpoint: mean survival time, dose: 200.0 mg/kg/injection, schedule: Q01DX009 (ip), vehicle: saline with Tween-80
[9] = endpoint: mean survival time, dose: 400.0 mg/kg/injection, schedule: Q01DX009 (ip), vehicle: saline with Tween-80
[10] = endpoint: mean survival time, dose: 100.0 mg/kg/injection, schedule: Q04DX003 (ip), vehicle: saline with Tween-80
[11] = endpoint: mean survival time, dose: 200.0 mg/kg/injection, schedule: Q04DX003 (ip), vehicle: saline with Tween-80
[12] = endpoint: mean survival time, dose: 400.0 mg/kg/injection, schedule: Q04DX003 (ip), vehicle: saline with Tween-80
[13] = endpoint: mean survival time, dose: 100.0 mg/kg/injection, schedule: Q04DX003 (ip), vehicle: saline
[14] = endpoint: mean survival time, dose: 100.0 mg/kg/injection, schedule: Q01DX001 (ip), vehicle: saline
[15] = endpoint: mean survival time, dose: 200.0 mg/kg/injection, schedule: Q01DX001 (ip), vehicle: saline
[16] = endpoint: mean survival time, dose: 400.0 mg/kg/injection, schedule: Q01DX001 (ip), vehicle: saline

Measured: T/C

CCCCCCCCC(O)CCCCCCCCC(=O)O (centres undefined)
inactive: [1] 93 % of control | [2] 87 % of control | [3] 87 % of control

CCOC(=O)c1c(O)c2c([nH]c1=O)CCc1ccccc1-2
inactive: endpoint: mean survival time, dose: 12.5 mg/kg/injection, schedule: Q01DX009 (ip), vehicle: saline with Tween-80 98 % of control | [4] 98 % of control | endpoint: mean survival time, dose: 25.0 mg/kg/injection, schedule: Q01DX009 (ip), vehicle: saline with Tween-80 95 % of control | [5] 93 % of control | [6] 95 % of control | [1] 103 % of control

Cc1cccc(C)c1OC(=O)Cl
inactive: endpoint: mean survival time, dose: 5.0 mg/kg/injection, schedule: Q01DX001 (ip), vehicle: saline 98 % of control | endpoint: mean survival time, dose: 10.0 mg/kg/injection, schedule: Q01DX001 (ip), vehicle: saline 97 % of control | endpoint: mean survival time, dose: 20.0 mg/kg/injection, schedule: Q01DX001 (ip), vehicle: saline 97 % of control | endpoint: mean survival time, dose: 40.0 mg/kg/injection, schedule: Q01DX001 (ip), vehicle: saline 97 % of control

C/C=C\C=C\C(=O)O
inactive: [7] 100 % of control | [8] 97 % of control | [9] 100 % of control

O=C1Nc2ccc3c4c(ccc1c24)CC3
inactive: [1] 105 % of control | [3] 94 % of control

COc1ccc(OC)c(C)c1
inactive: [7] 105 % of control | [8] 107 % of control | [9] 104 % of control

O=C(CCO)CC(=O)CCc1ccccc1Cl
inactive: [10] 97 % of control | [11] 103 % of control | [12] 91 % of control

CC(C)=CCCC(C)CCN(C)C (centres undefined)
inactive: endpoint: mean survival time, dose: 25.0 mg/kg/injection, schedule: Q01DX009 (ip), vehicle: saline 94 % of control | endpoint: mean survival time, dose: 50.0 mg/kg/injection, schedule: Q01DX009 (ip), vehicle: saline 94 % of control | endpoint: mean survival time, dose: 100.0 mg/kg/injection, schedule: Q01DX009 (ip), vehicle: saline 93 % of control | [13] 93 % of control

O=C1OCC2C(=O)OCC12 (centres undefined)
inactive: endpoint: mean survival time, dose: 50.0 mg/kg/injection, schedule: Q01DX001 (ip), vehicle: saline 107 % of control | [14] 101 % of control | [15] 107 % of control | [16] 109 % of control

NC1CCCCC1N.NC1CCCCC1N.[Cl-].[Ni] (centres undefined)
inactive: endpoint: mean survival time, dose: 50.0 mg/kg/injection, schedule: Q04DX002 (ip), vehicle: saline with Tween-80 110 % of control

Cc1c(Cl)cccc1NC(=O)c1ccc([N+](=O)[O-])cc1
inactive: [10] 95 % of control | [11] 101 % of control | [12] 86 % of control

COC(=O)c1cc(-c2ccc(Cl)cc2)nc2cc(Cl)c(OC)cc12
inactive: [14] 92 % of control | [15] 87 % of control

CC1=C(C)CC(C(Cl)(Cl)Cl)C([N+](=O)[O-])C1 (centres undefined)
inactive: [10] 98 % of control | [11] 96 % of control

CCCCCCC(C)NCCOC(=O)c1ccccc1 (centres undefined)
inactive: endpoint: mean survival time, dose: 75.0 mg/kg/injection, schedule: Q01DX001 (ip), vehicle: saline 103 % of control | endpoint: mean survival time, dose: 150.0 mg/kg/injection, schedule: Q01DX001 (ip), vehicle: saline 102 % of control | endpoint: mean survival time, dose: 300.0 mg/kg/injection, schedule: Q01DX001 (ip), vehicle: saline 97 % of control

C=C(Br)CNS(=O)(=O)c1ccc(OC)cc1
inactive: [7] 93 % of control | [8] 97 % of control | [9] 96 % of control

O=C1O/C(=C\c2ccccc2)C(O)=C1c1ccccc1
inactive: [4] 102 % of control | [5] 98 % of control | [1] 102 % of control

O=C(NCc1ccccc1)C(=O)NCc1ccccc1
inactive: endpoint: mean survival time, dose: 100.0 mg/kg/injection, schedule: Q04DX002 (ip), vehicle: saline with Tween-80 90 % of control | endpoint: mean survival time, dose: 200.0 mg/kg/injection, schedule: Q04DX002 (ip), vehicle: saline with Tween-80 87 % of control | endpoint: mean survival time, dose: 400.0 mg/kg/injection, schedule: Q04DX002 (ip), vehicle: saline with Tween-80 90 % of control

[O-][n+]1cc(N=Nc2ccc(Cl)cc2)nn1-c1ccc(Cl)cc1
inactive: [16] 86 % of control

O=C(Cc1ccccc1)c1ccccc1
inactive: [1] 102 % of control | [2] 102 % of control | [3] 94 % of control

O=[N+]([O-])c1ccc(Sc2ccncn2)c([N+](=O)[O-])c1
inactive: endpoint: median survival time, dose: 6.25 mg/kg/injection, schedule: Q01DX009 (ip), vehicle: saline with Tween-80 101 % of control | endpoint: median survival time, dose: 12.5 mg/kg/injection, schedule: Q01DX009 (ip), vehicle: saline with Tween-80 102 % of control | endpoint: median survival time, dose: 25.0 mg/kg/injection, schedule: Q01DX009 (ip), vehicle: saline with Tween-80 103 % of control | endpoint: median survival time, dose: 50.0 mg/kg/injection, schedule: Q01DX009 (ip), vehicle: saline with Tween-80 105 % of control | endpoint: median survival time, dose: 100.0 mg/kg/injection, schedule: Q01DX009 (ip), vehicle: saline with Tween-80 113 % of control

NS(=O)(=O)Cc1ccccc1
inactive: endpoint: mean survival time, dose: 25.0 mg/kg/injection, schedule: Q04DX003 (ip), vehicle: saline 107 % of control | endpoint: mean survival time, dose: 50.0 mg/kg/injection, schedule: Q04DX003 (ip), vehicle: saline 117 % of control | [13] 90 % of control and 92 % of control

OC12CC(C(F)(F)F)(C(F)(F)F)OC1(O)CC(C(F)(F)F)(C(F)(F)F)O2 (centres undefined)
inactive: [6] 95 % of control | [7] 95 % of control | [8] 95 % of control

CN(C)CC(C)(C)C(=O)c1ccc(F)cc1
inactive: endpoint: mean survival time, dose: 12.5 mg/kg/injection, schedule: Q04DX002 (ip), vehicle: saline 104 % of control | endpoint: mean survival time, dose: 25.0 mg/kg/injection, schedule: Q04DX002 (ip), vehicle: saline 101 % of control | endpoint: mean survival time, dose: 50.0 mg/kg/injection, schedule: Q04DX002 (ip), vehicle: saline 96 % of control

CC(=O)C1=CCC2C3CC=C4CC(OC#N)CCC4(C)C3CCC12C (centres undefined)
inactive: [7] 97 % of control | [8] 92 % of control | [9] 89 % of control

CCCN1CSC(=S)N(Cc2ccccc2)C1
inactive: [7] 92 % of control | [8] 97 % of control | [9] 92 % of control

COc1ccc(OC)c(NC(=O)c2cccc([N+](=O)[O-])c2)c1
inactive: [7] 90 % of control and 103 % of control | [8] 92 % of control and 93 % of control | [9] 89 % of control and 95 % of control

Cc1c2ccc3ccccc3c2c[n+]2ccccc12
inactive: endpoint: mean survival time, dose: 1.25 mg/kg/injection, schedule: Q01DX009 (ip), vehicle: Klucel (hydroxypropylcellulose) (HPC) 87 % of control and 102 % of control | endpoint: mean survival time, dose: 2.5 mg/kg/injection, schedule: Q01DX009 (ip), vehicle: Klucel (hydroxypropylcellulose) (HPC) 98 % of control and 102 % of control | endpoint: mean survival time, dose: 5.0 mg/kg/injection, schedule: Q01DX009 (ip), vehicle: Klucel (hydroxypropylcellulose) (HPC) 100 % of control and 105 % of control | endpoint: mean survival time, dose: 10.0 mg/kg/injection, schedule: Q01DX009 (ip), vehicle: Klucel (hydroxypropylcellulose) (HPC) 104 % of control and 110 % of control | endpoint: mean survival time, dose: 20.0 mg/kg/injection, schedule: Q01DX009 (ip), vehicle: Klucel (hydroxypropylcellulose) (HPC) 105 % of control

COc1ccc(/C=C/C(=O)c2ccc(Cl)cc2)c(OC)c1
inactive: endpoint: mean survival time, dose: 100.0 mg/kg/injection, schedule: Q04DX003 (ip), vehicle: other 101 % of control | endpoint: mean survival time, dose: 200.0 mg/kg/injection, schedule: Q04DX003 (ip), vehicle: other 95 % of control | endpoint: mean survival time, dose: 400.0 mg/kg/injection, schedule: Q04DX003 (ip), vehicle: other 93 % of control

O.O.O=C(O)CC(=O)O.[NH-]C1CCCCC1[NH-].[Pt+2] (centres undefined)
inactive: endpoint: mean survival time, dose: 12.5 mg/kg/injection, schedule: Q04DX003 (ip), vehicle: dextrose 98 % of control

c1ccc(-c2nnc(-c3ccccc3)nn2)cc1
inactive: [7] 98 % of control | [10] 98 % of control | [8] 98 % of control | [11] 101 % of control | [9] 95 % of control | [12] 96 % of control
